Reference: patent publication US20090030066A1, “SMALL MOLECULES FOR THE PROTECTION OF PANCREATIC CELLS” (priority 2007, published 2009)

Assays:
[1] = system: AR42J rat pancreatic tumor cell line; assay: MTT proliferation of AR42J pancreatic tumor cells; type: cell-based; conditions: 96 h
Description: In the Examples below, an MTT assay was used to determine the relative number of viable cells after treatments. This calorimetric assay is based on the ability of living cells, but not dead cells, to reduce 3-(4,5-dimethyl thiazol-2-yl)-2,5-diphenyltetrazolium bromide. [Carmichael, J, De Graff, W. G., Gazdar, A. F., Minna, J. D. and Mitchell, J. B. (1987) Evaluation of tetrazolium-based semiautomated calorimetric assay: Assessment of chemosensitivity testing. Cancer Res. 47, 936-942], which is hereby incorporated by reference. For this assay, cells were plated in 96-well plates, and the MTT assay was performed as described in the above article both in untreated and treated cell cultures. The MTT assay also was performed at the time when the treatment was started to allow for assessment of the proliferation and survival rates in the control and treated cell cultures. In the MTT assay, higher values mean proportionally higher numbers of viable cells.
The AR42J rat pancreatic tumor cell line, purchased from ATTC (catalog number: CRL-1492), was propagated in modified Ham's medium containing 20% fetal bovine serum. These cells, derived from a transplantable tumor of the exocrine pancreas, contain significant amounts of amylase and other exocrine enzymes and they produce tumors in athymic mice.
For the experiment, cells were split in 96-well plates at 15,000 cells per well. After 24 hours, the medium was changed for fresh medium (0 hour) and various concentrations of CCompound1 and CCompound3 were added and incubations continued for 96 hours. The MTT assay was used to determine the relative number of viable cells. From the data shown in TABLE 13, in the 2-25 μM concentration range CC compounds had only inhibitory effects on the proliferation of pancreatic cancer cells.

STZ-treated mice [2] = assay: STZ-treated mice, second experiment: body weight to day 80 and survival; type: in vivo; conditions: STZ + compound
Description: In a second similar experiment performed with 6 mice in each group, the changes in body weight were followed for up to 80 days (when the last STZ-treated mouse died), and survival was followed for up to 100 days.
For the body weight (on the 80th day) and survival the following values were obtained: Untreated (6 survivors), 37.7 g; STZ-treated (one last survivor died on day 80, others survived for 22, 25, 27, 60, 75 days), 26.0 g; CCompound1-treated (6 survivors), 36.0 g; STZ+CCompound1 treated (6 survivors), 33.4 g; STZ+CCompound3-treated (5 survivors; one mouse died on day 78), 32.5 g. At the start of the experiment (day 0), the average body weight ranged from 28.6 to 29.8 g. Accordingly, by day 80, STZ-treated animals that were also treated with CCompound1 and CCompound3 gained about 50% of the weight gained by the untreated animals.

STZ-treated mice [3] = assay: Blood glucose and body weight in STZ-treated mice, first experiment (not fasted); type: in vivo; conditions: for Body weight: STZ 210 mg/kg + compound 4.5 mg/kg i.p., unit not given, in g; for protection of islet β-cells: STZ-induced type 1 diabetes model; for effect on STZ-induced rise of blood glucose: STZ-treated animals, 4.5 mg/kg i.p.; for effect on STZ-induced body weight loss: STZ-treated mice, to day 10
Protocol: Male C57BL/6 mice (12 weeks old) were housed in a specific pathogen-free facility with a 12-h light/dark cycle and given free access to food and water. Animals weighing between 28-31 g were selected for the experiments. In each group, at the start of experiment the body weight among individual animals differed by less than 1-g.
One group of mice received no treatment over the entire experiment. A second group received only 4.5 mg per kg of CCompound1 on days −2, −1, 0, +1, +2, +3, +4, +5, +6 and +7. A third/fourth/fifth/sixth group of animals were treated i.p. with 210 mg/kg of STZ on day 0. The fourth, fifth, and sixth group of animals also received 4.5 mg per kg each of CCompound1 (CC1; 4th group) or CCompound3 (CC3; 5th group), or CCompound19 (CC19; 6th group) on days −2, −1, 0, +1, +2, +3, +4, +5, +6 and +7 (with STZ treatment given on day 0). Each group consisted of 7 animals. Body weight was measured regularly.
CC compounds were dissolved in physiological saline while STZ was dissolved in 100 mM sodium citrate (pH 4.5). All compounds were injected intraperitoneally in 0.5 ml volume. Control animals were injected physiological saline (0.5 ml) on the same days when other groups were treated with CC compounds.
Blood samples were taken from the eye (canthus) of the animals on days −1, 0, +1, +2, +3, +7 and +10, and glucose concentrations in whole blood samples were immediately measured with the commercially available fast Glucose C test. The animals were not fasted prior to taking the blood samples. The results are expressed as the mean values from 7 animals ±std. dev. (S.D.).

[4] = STZ 210 mg/kg i.p. day 0 + compound 4.5 mg/kg i.p. days −2 to +7, day 0
[5] = STZ 210 mg/kg i.p. day 0 + compound 4.5 mg/kg i.p. days −2 to +7, day +1
[6] = STZ 210 mg/kg i.p. day 0 + compound 4.5 mg/kg i.p. days −2 to +7, day +2
[7] = STZ 210 mg/kg i.p. day 0 + compound 4.5 mg/kg i.p. days −2 to +7, day +3
[8] = STZ 210 mg/kg i.p. day 0 + compound 4.5 mg/kg i.p. days −2 to +7, day +7
[9] = STZ 210 mg/kg i.p. day 0 + compound 4.5 mg/kg i.p. days −2 to +7, day +10
[10] = STZ 210 mg/kg i.p. day 0 + compound 4.5 mg/kg i.p. days −2 to +7, day −1

Structure (SMILES)	Body weight (STZ-treated mice [3]; day 0)	Body weight (STZ-treated mice [3]; day +1)	Body weight (STZ-treated mice [3]; day +2)	Body weight (STZ-treated mice [3]; day +3)	Body weight (STZ-treated mice [3]; day +7)	Body weight (STZ-treated mice [3]; day +10)	Blood glucose (STZ-treated mice [3]; [4])	Blood glucose (STZ-treated mice [3]; [5])	Blood glucose (STZ-treated mice [3]; [6])	Blood glucose (STZ-treated mice [3]; [7])	Blood glucose (STZ-treated mice [3]; [8])	Blood glucose (STZ-treated mice [3]; [9])	Blood glucose (STZ-treated mice [3]; [10])	protection of islet β-cells (STZ-treated mice [3])	effect on STZ-induced rise of blood glucose (STZ-treated mice [3])	effect on STZ-induced body weight loss (STZ-treated mice [3])	also measured
CC[N+](C)(CC)CCOCc1ccc2sc3ccccc3c(=O)c2c1 [CCcompound3]	28.0 ± 0.9	28.2 ± 0.8	25.3 ± 0.5	25.3 ± 0.6	25.2 ± 0.9	24.7 ± 1.3	4.7 ± 0.7 mM	6.5 ± 0.7 mM	10.7 ± 1.1 mM	13.0 ± 1.1 mM	14.2 ± 1.3 mM	13.6 ± 1.6 mM	4.6 ± 0.5 mM	clearly protected β-cell function	prevent drastic increase in blood glucose level	reduced the effect of STZ on body weight	A540 (MTT, relative number of viable cells) ([1]; 2 μM): 1.17; A540 (MTT, relative number of viable cells) ([1]; 5 μM): 0.868 ± 0.093; A540 (MTT, relative number of viable cells) ([1]; 10 μM): 0.745 ± 0.052; A540 (MTT, relative number of viable cells) ([1]; 25 μM): 0.675 ± 0.064; weight gained by day 80 relative to the weight gained by the untreated animals (STZ-treated mice [2]): about 50%; body weight on the 80th day (STZ-treated mice [2]; 6 mice per group): 32.5 g; survivors (STZ-treated mice [2]; 80th day, 6 mice per group): 5
C[N+](C)(C)CCC=C1c2ccccc2Sc2ccccc21.[I-] [CCcompound19, N,N,N-trimethyl-3-(9H-thioxanthen-9-ylidene)-propane-1-aminium iodide]	28.1 ± 0.5	28.5 ± 1.2	26.4 ± 0.8	26.8 ± 1.0	26.2 ± 0.9	26.4 ± 1.7	4.8 ± 0.3 mM	5.9 ± 0.6 mM	8.7 ± 0.8 mM	10.5 ± 0.9 mM	12.5 ± 1.1 mM	11.9 ± 1.1 mM	4.3 ± 0.3 mM	protected islet β-cells	prevent drastic increase in blood glucose level	reduced the effect of STZ on body weight	
